Experimental findings from publication PMC8565515, “Dasabuvir Inhibits Human Norovirus Infection in Human Intestinal Enteroids” (mSphere, 2021) are described below.

SMILES strings stand for the structures. Read-outs that look alike come from different tables or passages of the source.

The test system of one series is GII.4 HuNoV. Nature of the series: GII.4 HuNoV infection of HIE monolayers, viral genome equivalents by RT-qPCR. The class given is cell-based, human norovirus. Particulars: GII.4 HuNoV, 24 hpi; for activity at 10 µM: Norovirus, 24 h, read-out: (%) HuNoV GEs; for activity at 10 µM / (%) HuNoV GEs: compound 10 μM, n = 1, J2 HIE monolayers, normalized to DMSO control.

The test system of series [1] is J2 HIE monolayers. Nature of the series: Cytotoxicity by LDH assay in J2 HIE monolayers. Particulars: 24 hpi; for (%) Cytotoxicity: compound 10 μM, n = 1, LDH assay, J2 HIE monolayers infected with GII.4 HuNoV, normalized to DMSO control.
Series [2] has as its system J2 HIE monolayers. The following applies: human, 24 h, 10 μM.

Take `CN(C)C[C@H](O)Cn1c2ccc(Br)cc2c2cc(Br)ccc21` (racemic) [Wiskostatin]: the activity at 10 µM with GII.4 HuNoV is 22.9%. Besides, the “(%) Cytotoxicity” value in the series on J2 HIE monolayers [1] turned out to be 2.02%.

With `C[C@@]1(O)[C@H](O)[C@@H](CO)O[C@H]1n1ccc(N)nc1=O` [2-CMC, 2′-C-methylcytidine], in the series with GII.4 HuNoV (389 μM, J2 monolayers, positive control), the “effect on HuNoV infection” value is given as “completely blocked viral infection”. Besides, in the series on J2 HIE monolayers [1] (389 μM, J2 monolayers), the cytotoxicity entry is recorded as “without any cytotoxicity”.

Turning to `COc1cc2ncnc(Nc3cccc(Cl)c3)c2cc1OC` [AG-1478], in the series with J2 HIE monolayers [1], the “(%) Cytotoxicity” value stood at 84.88%.

As for `Nc1ncnc2c1ncn2[C@@H]1O[C@H](COP(=O)(O)O)[C@@H](O)[C@H]1O.O` [Adenosine 5'-monophosphate monohydrate], in the series on GII.4 HuNoV, the activity at 10 µM came to 34.4%. For the same compound, the “(%) Cytotoxicity” value in the series on J2 HIE monolayers [1] came out at 0.18%.

For `C=C1CC[C@@H]2[C@](C)(CO)[C@H](O)CC[C@@]2(C)[C@@H]1C/C=C1/C(=O)OC[C@H]1O` [Andrographolide], the activity at 10 µM in the series on GII.4 HuNoV was determined as 70.9%. Further, in the series on J2 HIE monolayers [1], the “(%) Cytotoxicity” value is given as -1.18%.

Regarding `CCOC(=O)c1c(CSc2ccccc2)n(C)c2cc(Br)c(O)c(CN(C)C)c12.Cl` [Arbidol hydrochloride], the “(%) HuNoV GEs” value in the series with GII.4 HuNoV is reported as 16.88%. Moreover, the “(%) Cytotoxicity” value in the series with J2 HIE monolayers [1] came out at 15.58%.

As for `COC(=O)c1cc(OC)c2c(c1-c1c(CO)cc(OC)c3c1OCO3)OCO2` [Bicyclol], in the series on GII.4 HuNoV, the activity at 10 µM was found to be 162%. Moreover, the “(%) Cytotoxicity” value in the series on J2 HIE monolayers [1] was determined as 0.26%.

Turning to `O=c1[nH]c(=O)n([C@H]2C[C@H](O)[C@@H](CO)O2)cc1/C=C/Br` [Brivudine], the activity at 10 µM with GII.4 HuNoV worked out at 34.8%. Also, the “(%) Cytotoxicity” value in the series with J2 HIE monolayers [1] was determined as 4.68%.

Take `C[C@H]1CO[C@@H]2Cn3cc(C(=O)NCc4ccc(F)cc4F)c(=O)c(O)c3C(=O)N12` [Cabotegravir]: in the series with GII.4 HuNoV, the activity at 10 µM came out at 54.1%. The “(%) Cytotoxicity” value in the series on J2 HIE monolayers [1] is 5.83%.

Take `CC(C)c1nc(CN(C)C(=O)N[C@@H](CCN2CCOCC2)C(=O)N[C@H](CC[C@H](Cc2ccccc2)NC(=O)OCc2cncs2)Cc2ccccc2)cs1` [Cobicistat]: the activity at 10 µM in the series with GII.4 HuNoV was 19.8%. Moreover, in the series on J2 HIE monolayers [1], the “(%) Cytotoxicity” value is reported as -2.34%.

For `Cc1cc(C)c(Nc2ccnc(Nc3ccc(C#N)cc3)n2)c(C)c1` [Dapivirine], the activity at 10 µM with GII.4 HuNoV was 24.8%. Also, the “(%) Cytotoxicity” value in the series with J2 HIE monolayers [1] is given as 0.74%.

For the compound `COC(=O)N[C@H](C(=O)NNC[C@H](O)[C@H](Cc1ccccc1)NC(=O)[C@@H](NC(=O)OC)C(C)(C)C)C(C)(C)C` [Des(benzylpyridyl) Atazanavi], the “(%) HuNoV GEs” value in the series with GII.4 HuNoV was determined as 101.09%. Moreover, the “(%) Cytotoxicity” value with J2 HIE monolayers [1] is recorded as 2.40%.

Turning to `CC1(C)[C@@H](O[C@H]2O[C@H](C(=O)O)[C@@H](O)[C@H](O)[C@H]2O[C@@H]2O[C@H](C(=O)O)[C@@H](O)[C@H](O)[C@H]2O)CC[C@]2(C)[C@H]3C(=O)C=C4[C@@H]5C[C@@](C)(C(=O)O)CC[C@]5(C)CC[C@@]4(C)[C@]3(C)CC[C@@H]12.N.N` [Diammonium Glycyrrhizinate], the “(%) HuNoV GEs” value with GII.4 HuNoV was 22.61%. Also, the “(%) Cytotoxicity” value in the series on J2 HIE monolayers [1] stood at 0.23%.

As to `O=c1c2ccccc2[se]n1-c1ccccc1` [Ebselen], the activity at 10 µM in the series with GII.4 HuNoV came to 96.7%. For the same compound, the “(%) Cytotoxicity” value in the series on J2 HIE monolayers [1] is recorded as 2.77%.

As to `COc1cc2c(cc1Cc1cccc(Cl)c1F)c(=O)c(C(=O)O)cn2[C@H](CO)C(C)C` [Elvitegravir], the activity at 10 µM in the series with GII.4 HuNoV was 164%. Moreover, in the series on J2 HIE monolayers [1], the “(%) Cytotoxicity” value came to 0.85%.

In the case of `CCOC(=O)CCC(=O)O[C@H]1[C@H](O[C@@H]2[C@@H](C)[C@H](O[C@H]3C[C@@](C)(OC)[C@@H](O)[C@H](C)O3)[C@@H](C)C(=O)O[C@H](CC)[C@@](C)(O)[C@H](O)[C@@H](C)C(=O)[C@H](C)C[C@@]2(C)O)O[C@H](C)C[C@@H]1N(C)C` [Erythromycin ethylsuccinate], the activity at 10 µM in the series on GII.4 HuNoV was determined as 107%. Besides, in the series on J2 HIE monolayers [1], the “(%) Cytotoxicity” value was 0.23%.

Consider `C[C@@H](c1ncncc1F)[C@](O)(Cn1cncn1)c1ccc(F)cc1F` [Voriconazole], for which the activity at 10 µM in the series on GII.4 HuNoV was 14.1%. For the same compound, in the series on J2 HIE monolayers [2], the “(%) Cytotoxicity” value is reported as -1.63%.

`Nc1ccn([C@H]2CC[C@@H](CO)O2)c(=O)n1` [Zalcitabine]: the activity at 10 µM in the series with GII.4 HuNoV is 71.5%. In addition, the “(%) Cytotoxicity” value in the series with J2 HIE monolayers [2] came out at 2.88%.
